Literature values in US8197795B2, “Method for monitoring early treatment response” (Receptomon, LLC, priority 2004, dated 2012).

Legend:
[1] = tested on: xenograft models, including colon cancer, non-small cell lung cancer (NSCLC), and prostate cancer; conditions: Ranson et al.
NSCLC = NSCLC patients treated with gefitinib; Lynch et al. 2004
solid, malignant tumors = conditions: patients with solid, Ranson et al. 2002

In the case of COc1cc2ncnc(Nc3ccc(F)c(Cl)c3)c2cc1OCCCN1CCOCC1 [gefitinib], the “activity in xenograft models” value [1] is listed as “active”, the “patients with a rapid and often dramatic clinical response” value (NSCLC) is listed as “about 10%” and the activity in patients (solid, malignant tumors) is listed as “active”.
